According to the NIST ThermoML archive (doi:10.1021/je8004134):

Assay: an = ratio of the nth substance listed, in mol/kg
Conditions: 298.15 K, 101 kPa, Liquid; for speed of sound: Sing-around technique in a fixed-path interferometer; for mass density: Vibrating tube method

[Cl][Co][Cl] [cobalt chloride] + C[S+](C)[O-]
Conditions	mass density [kg/m3]	speed of sound [m/s]
a1 = 0.04252	1099.76	1485.1
a1 = 0.06132	1101.77	1485.6
a1 = 0.08074	1103.85	1486.2
a1 = 0.1018	1106.1	1486.7
a1 = 0.122	1108.29	1487.4
a1 = 0.1423	1110.49	1488.2
a1 = 0.1621	1112.63	1488.8
a1 = 0.1818	1114.77	1489.5
a1 = 0.202	1116.97	1490

C[S+](C)[O-] [dimethyl sulfoxide] + [Cl][Co][Cl]
a2 = 0
Conditions	mass density [kg/m3]	speed of sound [m/s]
–	1095.19	1484.1

[Mn+2].[O-][Cl+3]([O-])([O-])[O-].[O-][Cl+3]([O-])([O-])[O-] [manganese (II) perchlorate] + C[S+](C)[O-]
Conditions	mass density [kg/m3]	speed of sound [m/s]
a1 = 0.0211	1099.48	1485.3
a1 = 0.02843	1100.98	1485.8
a1 = 0.037	1102.73	1486.2
a1 = 0.04758	1104.9	1486.8
a1 = 0.05763	1106.97	1487.5
a1 = 0.07358	1110.26	1488.3
a1 = 0.09456	1114.62	1489.7
a1 = 0.1139	1118.65	1490.8
a1 = 0.1337	1122.82	1492
a1 = 0.1566	1127.65	1493.4
a1 = 0.1754	1131.67	1494.6

C[S+](C)[O-] [dimethyl sulfoxide] + [Cl-].[Cl-].[Zn+2]
a2 = 0
Conditions	mass density [kg/m3]	speed of sound [m/s]
–	1095.2	1484.1

[Co+2].[O-][Cl+3]([O-])([O-])[O-].[O-][Cl+3]([O-])([O-])[O-] [cobalt(II) perchlorate] + C[S+](C)[O-]
Conditions	mass density [kg/m3]	speed of sound [m/s]
a1 = 0.0215	1099.78	1485.5
a1 = 0.03236	1102.1	1486.2
a1 = 0.04309	1104.4	1486.9
a1 = 0.05528	1107.03	1487.7
a1 = 0.06505	1109.14	1488.3
a1 = 0.08726	1113.97	1489.8
a1 = 0.1069	1118.27	1491
a1 = 0.1285	1123.03	1492.5
a1 = 0.148	1127.38	1493.7
a1 = 0.1695	1132.18	1495.2
a1 = 0.1911	1137.05	1496.6

[O-][Cl+3]([O-])([O-])[O-].[O-][Cl+3]([O-])([O-])[O-].[Zn+2] [zinc perchlorate] + CC(=O)N(C)C
Conditions	mass density [kg/m3]	speed of sound [m/s]
a1 = 0.04286	945.119	1460.8
a1 = 0.08313	954.115	1464.9
a1 = 0.1231	963.055	1469
a1 = 0.1625	971.852	1473.2
a1 = 0.2013	980.513	1477.5
a1 = 0.2396	989.07	1481.9
a1 = 0.2771	997.457	1486.3
a1 = 0.3148	1005.87	1490.8

C[S+](C)[O-] [dimethyl sulfoxide] + [Cl][Cu][Cl]
a2 = 0
Conditions	mass density [kg/m3]	speed of sound [m/s]
–	1095.2	1484.1

C[S+](C)[O-] [dimethyl sulfoxide] + [Co+2].[O-][Cl+3]([O-])([O-])[O-].[O-][Cl+3]([O-])([O-])[O-]
a2 = 0
Conditions	mass density [kg/m3]	speed of sound [m/s]
–	1095.19	1484.1

CC(=O)N(C)C [N,N-dimethylethanamide] + [Cu+2].[O-][Cl+3]([O-])([O-])[O-].[O-][Cl+3]([O-])([O-])[O-]
a2 = 0
Conditions	mass density [kg/m3]	speed of sound [m/s]
–	936.11	1455.4

[Cl][Mn][Cl] [manganese chloride] + C[S+](C)[O-]
Conditions	mass density [kg/m3]	speed of sound [m/s]
a1 = 0.04414	1100.11	1486.7
a1 = 0.0572	1101.48	1487.5
a1 = 0.06981	1102.79	1488.2
a1 = 0.08942	1104.86	1489.2
a1 = 0.1135	1107.39	1490.3
a1 = 0.1386	1110.03	1491.4
a1 = 0.1616	1112.45	1492.1
a1 = 0.19	1115.49	1493.2
a1 = 0.213	1117.93	1494.1

[Cu+2].[O-][Cl+3]([O-])([O-])[O-].[O-][Cl+3]([O-])([O-])[O-] [copper perchlorate] + CC(=O)N(C)C
Conditions	mass density [kg/m3]	speed of sound [m/s]
a1 = 0.06523	950.245	1463.1
a1 = 0.09641	957.338	1466.4
a1 = 0.1434	968.019	1471.3
a1 = 0.1894	978.49	1476.5
a1 = 0.2336	988.543	1481.5
a1 = 0.2774	998.499	1486.9
a1 = 0.3204	1008.3	1492.2
a1 = 0.364	1018.21	1498.1

[Ni+2].[O-][Cl+3]([O-])([O-])[O-].[O-][Cl+3]([O-])([O-])[O-] [nickel perchlorate] + C[S+](C)[O-]
Conditions	mass density [kg/m3]	speed of sound [m/s]
a1 = 0.01259	1097.89	1485
a1 = 0.02515	1100.6	1485.8
a1 = 0.03816	1103.4	1486.7
a1 = 0.051	1106.18	1487.5
a1 = 0.06341	1108.88	1488.4
a1 = 0.07675	1111.79	1489.2
a1 = 0.08797	1114.24	1490
a1 = 0.1004	1116.98	1491
a1 = 0.1125	1119.67	1491.7
a1 = 0.1251	1122.43	1492.6

CC(=O)N(C)C [N,N-dimethylethanamide] + [Mn+2].[O-][Cl+3]([O-])([O-])[O-].[O-][Cl+3]([O-])([O-])[O-]
a2 = 0
Conditions	mass density [kg/m3]	speed of sound [m/s]
–	936.213	1455.4

[Cl-].[Cl-].[Zn+2] [zinc chloride] + C[S+](C)[O-]
Conditions	mass density [kg/m3]	speed of sound [m/s]
a1 = 0.05319	1100.61	1484.1
a1 = 0.0712	1102.49	1484.2
a1 = 0.0892	1104.34	1484.5
a1 = 0.107	1106.22	1484.8
a1 = 0.1251	1108.12	1485.2
a1 = 0.1517	1110.9	1485.9
a1 = 0.1776	1113.65	1486.6

[Mn+2].[O-][Cl+3]([O-])([O-])[O-].[O-][Cl+3]([O-])([O-])[O-] [manganese (II) perchlorate] + CC(=O)N(C)C
Conditions	mass density [kg/m3]	speed of sound [m/s]
a1 = 0.03006	942.406	1459.5
a1 = 0.05909	948.611	1463.1
a1 = 0.08863	954.924	1466.8
a1 = 0.1177	961.136	1470.4
a1 = 0.1466	967.302	1474.1
a1 = 0.1747	973.327	1477.6
a1 = 0.2018	979.1	1481.2
a1 = 0.2287	984.866	1485

[Cu+2].[O-][Cl+3]([O-])([O-])[O-].[O-][Cl+3]([O-])([O-])[O-] [copper perchlorate] + C[S+](C)[O-]
Conditions	mass density [kg/m3]	speed of sound [m/s]
a1 = 0.01425	1098.31	1485
a1 = 0.02779	1101.26	1485.9
a1 = 0.0419	1104.35	1486.8
a1 = 0.05636	1107.54	1487.7
a1 = 0.07067	1110.7	1488.7
a1 = 0.08366	1113.58	1489.5
a1 = 0.09783	1116.73	1490.4
a1 = 0.1114	1119.78	1491.4
a1 = 0.1251	1122.85	1492.2
a1 = 0.1384	1125.85	1493.3

CC(=O)N(C)C [N,N-dimethylethanamide] + [Ni+2].[O-][Cl+3]([O-])([O-])[O-].[O-][Cl+3]([O-])([O-])[O-]
a2 = 0
Conditions	mass density [kg/m3]	speed of sound [m/s]
–	936.168	1455.4

CC(=O)N(C)C [N,N-dimethylethanamide] + [Cl][Cu][Cl]
a2 = 0
Conditions	mass density [kg/m3]	speed of sound [m/s]
–	936.304	1455.4

C[S+](C)[O-] [dimethyl sulfoxide] + [Cu+2].[O-][Cl+3]([O-])([O-])[O-].[O-][Cl+3]([O-])([O-])[O-]
a2 = 0
Conditions	mass density [kg/m3]	speed of sound [m/s]
–	1095.2	1484.1

CC(=O)N(C)C [N,N-dimethylethanamide] + [Cl-].[Cl-].[Zn+2]
a2 = 0
Conditions	mass density [kg/m3]	speed of sound [m/s]
–	936.22	1455.4

C[S+](C)[O-] [dimethyl sulfoxide] + [Cl][Ni][Cl]
a2 = 0
Conditions	mass density [kg/m3]	speed of sound [m/s]
–	1095.19	1484.1

[Co+2].[O-][Cl+3]([O-])([O-])[O-].[O-][Cl+3]([O-])([O-])[O-] [cobalt(II) perchlorate] + CC(=O)N(C)C
Conditions	mass density [kg/m3]	speed of sound [m/s]
a1 = 0.029	942.693	1459.3
a1 = 0.04235	945.675	1461
a1 = 0.05501	948.505	1462.7
a1 = 0.08591	955.413	1466.7
a1 = 0.1144	961.778	1470.4
a1 = 0.1415	967.838	1474
a1 = 0.1692	974.036	1477.8
a1 = 0.1973	980.3	1481.6
a1 = 0.2214	985.701	1484.9

[Cl-].[Cl-].[Zn+2] [zinc chloride] + CC(=O)N(C)C
Conditions	mass density [kg/m3]	speed of sound [m/s]
a1 = 0.05996	942.244	1456.9
a1 = 0.1117	947.615	1457.9
a1 = 0.1487	951.455	1458.7
a1 = 0.1875	955.473	1459.5
a1 = 0.223	959.152	1460.3
a1 = 0.2595	962.944	1461.2
a1 = 0.2955	966.681	1462.1
a1 = 0.3148	968.679	1462.5

CC(=O)N(C)C [N,N-dimethylethanamide] + [Co+2].[O-][Cl+3]([O-])([O-])[O-].[O-][Cl+3]([O-])([O-])[O-]
a2 = 0
Conditions	mass density [kg/m3]	speed of sound [m/s]
–	936.233	1455.4

[Cl][Ni][Cl] [nickel chloride (NiCl2)] + CC(=O)N(C)C
Conditions	mass density [kg/m3]	speed of sound [m/s]
a1 = 0.019	938.196	1457
a1 = 0.03382	939.871	1458
a1 = 0.05743	942.54	1459.5
a1 = 0.07634	944.678	1460.8
a1 = 0.09563	946.859	1462
a1 = 0.114	948.937	1463.3
a1 = 0.1327	951.046	1464.5
a1 = 0.1513	953.148	1465.8

[Cl][Ni][Cl] [nickel chloride (NiCl2)] + C[S+](C)[O-]
Conditions	mass density [kg/m3]	speed of sound [m/s]
a1 = 0.01103	1096.81	1485.1
a1 = 0.01653	1097.61	1485.5
a1 = 0.02222	1098.43	1486
a1 = 0.02764	1099.21	1486.3
a1 = 0.03328	1100.03	1486.7
a1 = 0.03812	1100.72	1487.1
a1 = 0.04374	1101.53	1487.4
a1 = 0.04953	1102.36	1487.8
a1 = 0.05501	1103.13	1488.2

CC(=O)N(C)C [N,N-dimethylethanamide] + [O-][Cl+3]([O-])([O-])[O-].[O-][Cl+3]([O-])([O-])[O-].[Zn+2]
a2 = 0
Conditions	mass density [kg/m3]	speed of sound [m/s]
–	936.15	1455.4

[O-][Cl+3]([O-])([O-])[O-].[O-][Cl+3]([O-])([O-])[O-].[Zn+2] [zinc perchlorate] + C[S+](C)[O-]
Conditions	mass density [kg/m3]	speed of sound [m/s]
a1 = 0.02918	1101.58	1485.7
a1 = 0.03465	1102.78	1486
a1 = 0.05104	1106.39	1486.9
a1 = 0.06794	1110.13	1487.8
a1 = 0.08574	1114.1	1488.8
a1 = 0.1022	1117.8	1489.7
a1 = 0.119	1121.58	1490.7
a1 = 0.1435	1127.14	1492.2
a1 = 0.1685	1132.85	1493.7

[Cl][Cu][Cl] [copper chloride] + CC(=O)N(C)C
Conditions	mass density [kg/m3]	speed of sound [m/s]
a1 = 0.04793	941.347	1456.2
a1 = 0.09502	946.26	1457.1
a1 = 0.139	950.849	1458
a1 = 0.1852	955.662	1458.9
a1 = 0.2306	960.406	1459.9
a1 = 0.2755	965.086	1460.9
a1 = 0.3194	969.661	1461.9
a1 = 0.364	974.319	1462.9
